Read-outs that look alike come from different tables or passages of the source.
Assays:
[1] = system: Huh7 cells; experiment: Huh7 cell proliferation assay (CCK8); type: cell-based, human; conditions: Homo sapiens
Experimental: CCK8 assay kit was used to determine antiproliferative activity of synthesized compounds against Huh7 cell line. First, Huh7 cells were seeded into 96-well plates at a density of 3000 cells/well and incubated overnight. Cells were then co-incubated with compounds at 8 concentrations for 72 h. Then, the cell proliferation was determined by the CCK8 kit according to the standard protocol. Experiments were performed in triplicate.

[2] = system: TEADs; experiment: TEAD-specific 8×GTIIC-luciferase reporter assay; type: cell-based; conditions: for inhibition at 10 µM: 8×GTIIC-luciferase, read-out: Luciferase reporter assay inhibitory rate
Experimental: A series of compounds featuring a chloromethyl ketone moiety were synthesized (Schemes 1-4). The inhibitory rate of this series of compounds was tested using 8×GTIIC-luciferase reporter assay at 10 μM.
Next, the inhibition of TEAD transcription activity of compounds was tested varying the dosage using the 8×GTIIC-luciferase reporter assay. […] The aim was to determine whether its inhibition of TEAD transcription can lead to downregulation of the YAP-TEAD target genes. CTGF is one of the best characterized (bona fide) target gene of YAP and TAZ.
To further investigate the mechanism of the inhibitory effect of compounds in Huh7 cells, TEADs specific luciferase reporter assays were performed with compounds 22 and 12 at several concentrations. […] TEAD downstream gene expression patterns were evaluated in liver cancer cells Huh7, which has been evidenced with relative high expression of YAP and TEAD2.
HEK 293T cells were plated at 2×10^4 cells/well in a 96 well microplate and were transfected with 50 ng of 8×GTIIC-luciferase plasmid (Addgene #34615) and 0.5 ng of pRL-CMV (Promega #E226A) by using lipofectamine 3000 (Life Technologies #L3000). The 8×GTIIc-luciferase reporter is a Yap/Taz-activity reporter containing eight TEAD consensus binding sequences. After 6 h, transfected cells were treated with various concentrations of compounds or DMSO control. Luciferase signals were measured using the Dual Luciferase Reporter Assay System (Promega, E1960) according to the manufacturer's instructions. Experiments were performed in triplicate and repeated at least three times.

[3] = system: AML12 cells; experiment: AML12 normal liver cell growth inhibition (CCK8); type: cell-based; conditions: for Inhibitory rate, AML12 (inhibitory percentage of AML12 cell growth): 10 μM, 3 days
[4] = Huh-7, 72 h, 3 days, CCK8, mean ± SD of three independent experiments, read-out: Cell proliferation assay IC50, Huh7

Row | SMILES | IC50 [1, 4] [µM] | IC50 ([1]; Huh-7, Table 3 column is in μM, read-out: Huh7 cell growth inhibition / proliferation IC50) [µM] | inhibition at 10 µM [2] [%] | Inhibitory rate, AML12 (inhibitory percentage of AML12 cell growth) [3] [%] | TEAD transcription inhibition, luciferase reporter ([2]; varying dosage, FIGS. 3A-3B) | Toxicity towards normal liver cell line AML12 [3]
1 | O=C(CCl)c1c[nH]c2ccc(OCc3ccc4ccccc4c3)cc12 [Compound 7, 2-chloro-1-(5-(naphthalen-2-ylmethoxy)-1H-indol-3-yl)ethan-1-one] | > 20 | – | 5.3 | – | – | –
2 | O=C(CCl)c1c[nH]c2cc(Cl)c(OCc3cccc4ccccc34)cc12 [Compound 3, 2-chloro-1-(6-chloro-5-(naphthalen-1-ylmethoxy)-1H-indol-3-yl)ethan-1-one] | 1.6 ± 0.3 | – | 69.4 | 50.3 | – | –
3 | COc1cc2[nH]cc(C(=O)CCl)c2cc1OCc1ccc2ccccc2c1 [Compound 5, 2-chloro-1-(6-methoxy-5-(naphthalen-2-ylmethoxy)-1H-indol-3-yl)ethan-1-one] | 2.4 ± 0.5 | – | 93.9 | 77.4 | potent inhibition activity | high toxicity
4 | O=C(CCl)c1c[nH]c2cc(Cl)c(OCc3ccccc3)cc12 [Compound 1, 1-(5-(benzyloxy)-6-chloro-1H-indol-3-yl)-2-chloroethan-1-one] | 2.7 ± 0.2 | – | 74.6 | 36.2 | – | –
5 | COc1cc2[nH]cc(C(=O)CCl)c2cc1OCc1ccccc1 [Compound 4, 1-(5-(benzyloxy)-6-methoxy-1H-indol-3-yl)-2-chloroethan-1-one] | 3.8 ± 0.4 | – | 53.7 | 46.1 | – | –
6 | N#C/C(=C\c1c[nH]c2cc(Cl)c(OCc3cccc4ccccc34)cc12)C(N)=O [Compound 18, (E)-3-(6-chloro-5-(naphthalen-1-ylmethoxy)-1H-indol-3-yl)-2-cyanoacrylamide] | – | – | 51.3 | 70.3 | – | –
7 | O=C(CCl)c1c[nH]c2ccc(OCc3ccccc3)cc12 [Compound 8, 1-(5-(benzyloxy)-1H-indol-3-yl)-2-chloroethan-1-one] | 10.5 ± 0.9 | – | 20.5 | – | – | –
8 | O=C(CCl)c1c[nH]c2cc(Cl)c(OCc3ccc(C(F)(F)F)cc3)cc12 [Compound 23, 2-chloro-1-(6-chloro-5-((4-(trifluoromethyl)benzyl)oxy)-1H-indol-3-yl)ethan-1-one] | 16.9 | – | – | – | – | –
9 | COc1cc2[nH]cc(C(=O)CCl)c2cc1OCc1cccc2ccccc12 [Compound 6, 2-chloro-1-(6-methoxy-5-(naphthalen-1-ylmethoxy)-1H-indol-3-yl)ethan-1-one] | 2.5 ± 0.8 | – | 64.5 | 62.1 | – | –
10 | O=C(CCl)c1c[nH]c2cc(Cl)c(OCc3ccc(C(F)(F)F)c(F)c3)cc12 [Compound 24, 2-chloro-1-(6-chloro-5-((3-fluoro-4-(trifluoromethyl)benzyl)oxy)-1H-indol-3-yl)ethan-1-one] | 1.8 | – | – | – | – | –
11 | N#C/C(=C\c1c[nH]c2cc(Cl)c(OCc3cccc(C(F)(F)F)c3)cc12)C(N)=O [Compound 21, 3-(6-chloro-5-((3-(trifluoromethyl)benzyl)oxy)-1H-indol-3-yl)-2-cyanoacrylamide] | – | – | 59.7 | 97.1 | – | –

The next lines start with results.

Row | IC50 [1, 4] [µM] | IC50 ([1]; Huh-7, Table 3 column is in μM, read-out: Huh7 cell growth inhibition / proliferation IC50) [µM] | SMILES | inhibition at 10 µM [2] [%] | Inhibitory rate, AML12 (inhibitory percentage of AML12 cell growth) [3] [%] | TEAD transcription inhibition, luciferase reporter ([2]; varying dosage, FIGS. 3A-3B) | Toxicity towards normal liver cell line AML12 [3]
12 | 4.1 ± 0.6 | – | N#C/C(=C\c1c[nH]c2cc(Cl)c(OCc3ccc4ccccc4c3)cc12)C(N)=O [Compound 17, (E)-3-(6-chloro-5-(naphthalen-2-ylmethoxy)-1H-indol-3-yl)-2-cyanoacrylamide] | 47.3 | 60.2 | – | –
13 | 5.3 ± 0.5 | – | N#C/C(=C\c1c[nH]c2cc(Cl)c(OCC3CCC(F)(F)CC3)cc12)C(N)=O [Compound 19, (E)-3-(6-chloro-5-((4,4-difluorocyclohexyl)methoxy)-1H-indol-3-yl)-2-cyanoacrylamide] | 60.1 | 30.1 | – | –
14 | 30.2 ± 2.5 | – | C=CC(=O)NCc1c[nH]c2cc(Cl)c(OCc3ccc4ccccc4c3)cc12 [Compound 9, N-((6-chloro-5-(naphthalen-2-ylmethoxy)-1H-indol-3-yl)methyl)acrylamide] | 1.5 | 0 | – | –
15 | > 50 | – | C=CC(=O)NCc1c[nH]c2cc(Cl)c(OCc3ccccc3)cc12 [Compound 11, N-((5-(benzyloxy)-6-chloro-1H-indol-3-yl)methyl)acrylamide] | – | 0 | – | –
16 | 8.3 ± 0.8 | – | O=C(CCl)NCc1c[nH]c2cc(Cl)c(OCc3cccc(C(F)(F)F)c3)cc12 [Compound 15, 2-chloro-N-((6-chloro-5-((3-(trifluoromethyl)benzyl)oxy)-1H-indol-3-yl)methyl) acetamide] | 47.9 | 41.1 | – | –
17 | > 50 | – | N#C/C(=C\c1c[nH]c2cc(Cl)c(OCc3ccccc3)cc12)C(N)=O [Compound 16, (E)-3-(5-(benzyloxy)-6-chloro-1H-indol-3-yl)-2-cyanoacrylamide] | – | 0 | – | –
18 | 2 ± 0.7 | – | C=C(CN(C)C)C(=O)NCc1c[nH]c2cc(Cl)c(OCc3ccccc3)cc12 [Compound 25, N-((5-(benzyloxy)-6-chloro-1H-indol-3-yl)methyl)-2-((dimethylamino)methyl) acrylamide] | 71.8 | 37.2 | – | –
19 | 68.7 ± 5.4 | – | N#C/C(=C\c1c[nH]c2cc(Cl)c(OCc3ccc4ccccc4n3)cc12)C(N)=O [Compound 20, (E)-3-(6-chloro-5-(quinolin-2-ylmethoxy)-1H-indol-3-yl)-2-cyanoacrylamide] | – | 0 | – | –
20 | 0.8 ± 0.2 | 0.8 | O=C(CCl)NCc1c[nH]c2cc(Cl)c(OCc3cccc4ccccc34)cc12 [Compound 14, 2-chloro-N-((6-chloro-5-(naphthalen-1-ylmethoxy)-1H-indol-3-yl)methyl)acetamide] | 81.5 | 54.1 | – | significant cytotoxicity
21 | 14.4 ± 1.2 | – | C=CC(=O)NCc1c[nH]c2cc(Cl)c(OCc3cccc4ccccc34)cc12 [Compound 10, N-((6-chloro-5-(naphthalen-1-ylmethoxy)-1H-indol-3-yl)methyl)acrylamide] | 10.6 | 0 | – | –
22 | 5.7 ± 1.3 | – | O=C(CCl)NCc1c[nH]c2cc(Cl)c(OCc3ccc4ccccc4c3)cc12 [Compound 13, 2-chloro-N-((6-chloro-5-(naphthalen-2-ylmethoxy)-1H-indol-3-yl)methyl)acetamide] | 67.4 | 43.4 | – | –
